According to US20160243015A1, “SKIN LIGHTENING COMPOSITION” (Conopco, Inc., d/b/a UNILEVER, priority 2013, published 2016):

Legend:
[1] = test system: Melanoderm cultures (human keratinocytes and melanocytes), melanin production; assay: Assay of pigment production by Living Skin Equivalents (Melanoderm); assay type: cell-based; parameters: inhibition: dose or concentration left out as unconfirmed; details: 14 days, melanin normalized to protein levels; for % inhibition of melanin production compared to vehicle control: 10 μM; for inhibition: Homo sapiens, 336 h, read-out: % inhibition of melanin production compared to vehicle control
Description: Assay of pigment production by Living Skin Equivalents (Melanoderms™)
So called reconstructed pigmented ‘skin’ cultures containing keratinocytes and melanocytes are commercially available and, for example, can be purchased from MatTek Corp, 200, Homer Avenue, Ashland, Mass., USA, under the trade name Melanoderm™. Melanoderms™ (catalogue reference MEL-300) containing melanocytes from […] donor skin were maintained in EPI-100-NMM113 media following the manufacturer's instructions and using standard methods for the maintenance of cultured mammalian cells under aseptic conditions. The Melanoderm™ cultures were treated with test agents for a total of 14 days. During the 14 day culture period the melanocytes in the Melanoderm™ cultures synthesise melanin in specialised vesicular structures called melanosomes. The pigmented melanosomes are transferred to the adjacent keratinocytes and the transferred-melanosomes tend to accumulate over the nucleus of the keratinocytes. This process is the same as occurs in skin in vivo and accordingly the Melanoderm™ culture is considered to be a very good test ‘skin tissue’ to mimic the effect of the skin pigmentation process in vivo. A compound that leads to a reduction in melanin production in the Melanoderm™ culture over 14 days by 10% or more is considered to have a positive pigment reducing effect. It is important that the reduction in pigment occurs without substantive loss of cell viability such that the inhibitory effect of the test compound is due to its biological function rather than due to cell toxicity.
Culture media changes and re-dosing of compounds at selected concentrations took place every 2 or 3 days during the test period. Melanoderm™ cultures were also treated with control materials including the vehicle (dimethylsulphoxide (DMSO)) used to dissolve the test material and a positive control material known to lead to the synthesis of reduced amounts of melanin in the cultures. 4-ethylresorcinol was used as a positive control. After 14 days culture, transmitted-light microscopy images were captured for every culture using a Leica DM IL microscope at ×20 magnification.
The cell viability of the cultures was assessed using the so called WST-1 (Water Soluble Tetrazolium Salt-1) assay purchased from Roche Applied Science and following the manufacturer's instructions. The stable tetrazolium salt WST-1 is cleaved to a soluble formazan dye by a complex cellular mechanism that occurs primarily at the cell surface. This bioreduction is largely dependent on the glycolytic production of NADPH in viable cells. Therefore, the amount of soluble formazan dye formed in the culture medium directly correlates to the number of metabolically active cells in the culture. Cultures were incubated with WST-1 in the medium for 1 hour and production of formazan measured at 450 nm using a spectrophotometer plate reader, e.g. a BMG Labtech FLUOstar plate reader. Cultures were considered ‘viable’ if they generated greater than 80% of the control value of formazan product. Subsequently the culture was washed briefly in phosphate buffer solution (PBS) and total melanin and protein extracted together from each culture using 250 μl Solvable™ (Perkin Elmer product 6NE9100) reagent at 60° C. overnight as recommended by the manufacturer. The total protein content using a sample of the extracts was determined using the so called BCA (bicinchoninic acid) assay. The BCA assay may be purchased from Pierce Chemical Company and conducted following the manufacturer's instructions. Melanin was determined by measuring the absorbance at 485 nm, for example using a BMG Labtech FLUOstar plate reader. The amount of melanin extracted from each culture was determined by reference to a standard synthetic-melanin curve (Sigma Aldrich Chemical Company catalogue reference M8631). […]

human tyrosinase enzyme = target: T1, human tyrosinase enzyme (Homo sapiens, UniProt P14679); assay: Tyrosinase inhibition assay (melanocyte lysate, L-DOPA/MBTH); assay type: biochemical
T1 construct: Human neonatal darkly pigmented melanocytes lysate was used as a source of tyrosinase enzyme; host or cells: human neonatal darkly pigmented melanocytes (crude NP-40 lysate supernatant)
T1 sequence (P14679 19-529): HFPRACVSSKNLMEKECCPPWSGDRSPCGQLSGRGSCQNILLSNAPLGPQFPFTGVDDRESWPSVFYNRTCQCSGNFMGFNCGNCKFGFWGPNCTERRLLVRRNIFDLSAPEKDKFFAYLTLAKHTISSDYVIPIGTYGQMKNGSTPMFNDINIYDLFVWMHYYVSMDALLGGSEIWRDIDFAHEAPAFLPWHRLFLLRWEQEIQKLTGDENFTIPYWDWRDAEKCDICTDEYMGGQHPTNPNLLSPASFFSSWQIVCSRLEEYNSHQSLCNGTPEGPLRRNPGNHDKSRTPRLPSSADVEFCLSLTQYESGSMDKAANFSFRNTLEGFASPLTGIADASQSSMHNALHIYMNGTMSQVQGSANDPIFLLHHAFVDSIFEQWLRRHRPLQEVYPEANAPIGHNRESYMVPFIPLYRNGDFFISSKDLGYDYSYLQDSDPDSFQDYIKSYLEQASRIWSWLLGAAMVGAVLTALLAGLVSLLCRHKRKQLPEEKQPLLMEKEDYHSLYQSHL
Description: Human neonatal darkly pigmented melanocytes lysate was used as a source of tyrosinase enzyme. The human melanocyte cells were purchased from Cascade Biologics (Code: C-202-5C) and cultured using standard methods. A confluent 25 cm^2 flask of melanocytes was washed with 2 ml of ice-cold PBS (phosphate buffered saline), followed by incubation with 1 ml of (0.025% w/v) Trypsin (0.01% w/v) EDTA (ethylenediamine tetraacetic acid) solution for 2 minutes at 37° C. to release the adherent cells. Trypsin was neutralized by the addition of 3 ml ‘neutralizer’ solution (sterile PBS solution containing 0.5% w/vnewborn bovine serum). […] The protein content in the lysate was measured by the Bradford reagent method (bovine serum albumin standard). […]
The solution phase tyrosinase activity assay was initiated by mixing 50 μl of 50 mM potassium phosphate buffer (pH 6.8), 60 μl of 10 mM MBTH (3-Methyl-2-benzothiazolinonhydrazon hydrochloride hydrate) in 10 mM potassium phosphate buffer, 30 μl of 10 mM L-DOPA (L-3,4-dihydroxyphenylalanine) in 10 mM potassium phosphate buffer, 4 μl of melanocytic cell extract (about 2 μg/μl protein), and 6 μl of distilled water (to make up the volume to 150 μl), and incubated for about 1 hour at 37° C. […] Then 200 μl of the supernatant was transferred to a 96-well flat-bottom plate, and the OD (optical density) read in a TECAN plate-reader (540 nm transmission). […]

| inhibition at 10 µM (human tyrosinase enzyme) | Structure (SMILES) | % inhibition of melanin production compared to vehicle control [1] | inhibition [1] |
| --- | --- | --- | --- |
|  | Cc1nc(NC(=S)NC(=O)COc2ccccc2)ccc1I [S21, N-[[(5-iodo-6-methyl-2-pyridiny)lamino]-thioxomethyl]-2-phenoxyacetamide] | 39% | 30 to 40% |
|  | O=C(COc1ccccc1)NC(=S)Nc1ccc(I)cn1 [NC-0475, N-[[(5-iodo-2-pyridinyl)-amino]-thioxomethyl]-2-phenoxyacetamide] | 53% | > 50% |
|  | Cc1cccc(OCC(=O)NC(=S)Nc2ccc(I)cn2)c1 [S20, N-[[(5-iodo-2-pyridinyl)-amino]-thioxomethyl]-2-(3-methylphenoxy)-acetamide] | 22% | 20 to 30% |
|  | CC(C)c1ccc(OCC(=O)NC(=S)Nc2ccc(Cl)cn2)cc1 [S16, N-[[(5-chloro-2-pyridinyl)-amino]-thioxomethyl]-2-[4-(1-methylethyl)-phenoxy]-acetamide] | 38% | 30 to 40% |
|  | O=C(COc1ccc(Cl)cc1)NC(=S)Nc1ccc(I)cn1 [S18, N-[[(5-iodo-2-pyridinyl)-amino]-thioxomethyl]-2-(4-chlorophenoxy)-acetamide] | 28% | 20 to 30% |
|  | O=C(COc1ccccc1)NC(=S)Nc1ccc(Cl)cn1 [S12, N-[[(5-chloro-2-pyridinyl)-amino]-thioxomethyl]-2-phenoxyacetamide] | 47% | 40 to 50% |
|  | O=C(COc1ccccc1)NC(=S)Nc1ccccn1 [S14, N-[[2-pyridinylamino]-thioxomethyl]-2-phenoxyacetamide] |  | 10% |
|  | CC(C)(C)c1ccc(OCC(=O)NC(=S)Nc2ccc(I)cn2)cc1 [S19, N-[[(5-iodo-2-pyridinyl)-amino]-thioxomethyl]-2-[4-(1,1-dimethylethyl)phenoxy]-acetamide] | 22% | 20 to 30% |
| 29% | CCc1ccc(O)cc1O [4-ethyl resorcinol] |  |  |
|  | O=C(COc1ccc(Cl)cc1Cl)NC(=S)Nc1ccc(I)cn1 [S17, N-[[(5-iodo-2-pyridinyl)-amino]-thioxomethyl]-2-(2,4-dichlorophenoxy)-acetamide] | 43% | 40 to 50% |
|  | Cc1ccc(OCC(=O)NC(=S)Nc2ccc(Cl)cn2)cc1 [S13, N-[[(5-chloro-2-pyridinyl)-amino]-thioxomethyl]-2-(4-methylphenoxy)-acetamide] | 35% | 30 to 40% |
|  | Cc1cc(OCC(=O)NC(=S)Nc2ccc(I)cn2)cc(C)c1Cl [S15, N-[[(5-iodo-2-pyridinyl)-amino]-thioxomethyl]-2-(4-chloro-3,5-dimethylphenoxy)-acetamide] | 43% | 40 to 50% |
